“And” between values parts separate entries of the source, which are not always exact repeats. Equal values may be shown once. Read-outs that look alike come from different tables or passages of the source.
Target: T1, Tg244440 (Toxoplasma gondii, UniProt A0A125YNC9)
T1 sequence (A0A125YNC9 1-462): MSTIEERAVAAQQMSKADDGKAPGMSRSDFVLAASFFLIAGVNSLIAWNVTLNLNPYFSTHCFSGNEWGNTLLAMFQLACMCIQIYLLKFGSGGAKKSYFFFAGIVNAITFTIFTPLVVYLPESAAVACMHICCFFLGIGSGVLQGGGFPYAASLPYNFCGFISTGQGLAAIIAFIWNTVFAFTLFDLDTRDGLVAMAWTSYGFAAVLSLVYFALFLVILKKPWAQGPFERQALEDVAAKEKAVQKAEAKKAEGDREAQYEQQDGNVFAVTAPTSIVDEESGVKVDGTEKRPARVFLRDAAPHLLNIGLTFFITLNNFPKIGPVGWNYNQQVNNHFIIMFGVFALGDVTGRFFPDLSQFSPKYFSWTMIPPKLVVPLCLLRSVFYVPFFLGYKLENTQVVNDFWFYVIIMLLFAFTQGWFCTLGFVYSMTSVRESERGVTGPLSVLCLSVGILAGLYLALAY
Test: [3H]-guanine uptake and its inhibition in T. brucei TbNB-KO procyclics expressing Tg244440 (clone F5)
Type: cell-based
Details: for Ki: competition with 50 nM [3H]-guanine, Cheng-Prusoff; for Ki / Inhibition of [3H]-guanine transport by pyrimidines: 30 s; for ΔG^0 (Gibbs free energy of interaction): calculated from Km or Ki, ΔG0 = −RTln(Ki); for Inhibition of [3H]-guanine transport by pyrimidines: inhibitor at 1 mM, 0.1 μM [3H]-guanine
Procedure: Briefly, PCF cells of T. brucei in logarithmic growth were harvested by centrifugation at 1000× g for 10 min, washed twice in AB and then resuspended in fresh buffer at a final density of 10^8 cells/mL. […] Immediately after finishing the assay, all tubes were flash-frozen in liquid nitrogen and the cell pellets were cut into scintillation vials and lysed with a solution of 2% SDS for one hour under agitation. Then, 3 mL of scintillation fluid (Scintilogic U, Lablogic) was added to each vial and left agitating overnight on a rocking platform. The next morning, the vials were vigorously shaken to ensure optimal mixing and the scintillation was measured in a 300SL (Hidex) scintillation counter. All assays were carried out in triplicate. All experimental data such as Km, Ki and Vmax values are the average and SEM of at least three separate experiments, each in triplicate, unless otherwise indicated.
Background scintillation was measured in vials containing no cells or radiolabeled substrate, and counts associated with extracellular radiolabel were calculated from samples where cells were briefly incubated with the same concentration of radiolabel, but in the presence of saturating concentrations of non-radiolabeled substrate before centrifugation through oil. The average of the three control replicates was subtracted from each data point.

Structure (SMILES)	Ki (Ki)	ΔG^0 (Gibbs free energy of interaction)	other results
OC[C@H]1O[C@@H](n2cc(Cl)c3c(O)ncnc32)[C@H](O)[C@@H]1O [7-deaza-7-Chloroinosine]	8.9 ± 1.3 µM	-6.88 kcal/mol	Affinity for Tg244440 (in words): high affinity; δ(ΔG^0) relative to Inosine: 0.454 kcal/mol
OC[C@H]1O[C@@H](n2ccc3c(O)ncnc32)[C@H](O)[C@@H]1O [7-deazainosine]	6.32 ± 0.32 µM	-7.1 kcal/mol	δ(ΔG^0) relative to Inosine: 0.263 kcal/mol
O=c1[nH]c(=O)c2nc[nH]c2[nH]1 [Xanthine]	42.4 ± 4.2 µM	-5.95 kcal/mol	δ(ΔG^0) relative to Guanine: 2.08 kcal/mol; δ(ΔG^0) relative to Hypoxanthine: 1.74 kcal/mol
Nc1ncnc2c1ccn2[C@@H]1O[C@H](CO)C[C@H]1O [3′-deoxy,7-deazaadenosine]	797 ± 116 µM	-4.23 kcal/mol	δ(ΔG^0) relative to Adenosine: 1.46 kcal/mol
O=c1[nH]c(=O)c2[nH]ccc2[nH]1 [9-deazaxanthine]	48.2 ± 5.4 µM	-5.88 kcal/mol	δ(ΔG^0) relative to Xanthine (relative to Xanthine): 0.072 kcal/mol
Nc1ncnc2c1ncn2[C@H]1C[C@H](O)[C@@H](CO)O1 [2′-deoxyadenosine]	83.9 ± 6.2 µM	-5.57 kcal/mol	δ(ΔG^0) relative to Adenosine: 0.12 kcal/mol
OC[C@H]1O[C@@H](n2cnc3c(S)ncnc32)[C@H](O)[C@@H]1O [6-thioinosine]	7.3 ± 1.2 µM	-7 kcal/mol	δ(ΔG^0) relative to Inosine: 0.335 kcal/mol
O=c1ccn([C@@H]2O[C@H](CO)[C@@H](O)[C@H]2O)c(=O)[nH]1 [uridine]	–	–	Inhibition of [3H]-guanine transport by pyrimidines: significant inhibition
O=c1[nH]cnc2nn[nH]c12 [8-azahypoxanthine]	> 1000 µM	–	inhibition at 1000 µM (read-out: Inhibition of the transport of 50 nM [3H]-guanine): < 50%; δ(ΔG^0) relative to Hypoxanthine: >3.61 kcal/mol
Nc1nc2c(c(=O)[nH]1)CC=N2 [7-deazaguanine]	49.2 ± 5.8 µM	-5.88 kcal/mol	δ(ΔG^0) relative to Guanine: 2.17 kcal/mol
O=C1CC=Nc2nc[nH]c21 [1-deazahypoxanthine]	194 ± 43 µM	-5.07 kcal/mol	δ(ΔG^0) relative to Hypoxanthine: 2.63 kcal/mol
O=[N+]([O-])c1ccc(CSc2ncnc3c2ncn3[C@@H]2O[C@H](CO)[C@@H](O)[C@H]2O)cc1 [S-(4-nitrobenzyl)-6-thioinosine (NBMPR), S-(4-nitrobenzyl)-6-thioinosine]	78 ± 6 µM	-5.59 kcal/mol	δ(ΔG^0) relative to Adenosine: 0.0837 kcal/mol
Oc1ncnc2[nH]ncc12 [Allopurinol]	185 ± 15 µM	-5.09 kcal/mol	δ(ΔG^0) relative to Hypoxanthine: 2.61 kcal/mol
Clc1ncnc2nc[nH]c12 [6-Chloropurine]	109 ± 8 µM	-5.4 kcal/mol	δ(ΔG^0) relative to Hypoxanthine: 2.29 kcal/mol
Nc1ncnc2c1ncn2[C@@H]1O[C@H](CO)C[C@H]1O [3′-deoxyadenosine]	71.9 ± 2.3 µM	-5.64 kcal/mol	δ(ΔG^0) relative to Adenosine: 0.024 kcal/mol
Nc1ncnc2[nH]cnc12 [Adenine]	425 ± 80 µM	-4.59 kcal/mol	Affinity for Tg244440 (in words): Low affinity; δ(ΔG^0) relative to Hypoxanthine: 3.11 kcal/mol
OC[C@H]1O[C@@H](n2ccc3c(O)ncnc32)C[C@@H]1O [7-deaza-2′-deoxyinosine]	52.3 ± 8.4 µM	-5.83 kcal/mol	δ(ΔG^0) relative to 2′-Deoxyinosine (relative to 2′-Deoxyinosine): -0.478 kcal/mol
CCOc1ncnc2c1c(Cl)cn2[C@@H]1O[C@H](CO)[C@@H](O)[C@H]1O [6-O-ethyl,7-deaza,7-Cl-inosine]	–	-5.14 kcal/mol	Ki (read-out: Ki): 169 ± 10 µM; δ(ΔG^0) relative to Inosine: 2.2 kcal/mol
O=c1[nH]ccc2nc[nH]c12 [3-deazahypoxanthine]	59.5 ± 7.2 µM	-5.76 kcal/mol	δ(ΔG^0) relative to Hypoxanthine: 1.94 kcal/mol
OC[C@H]1O[C@@H](n2cnc3c(O)ccnc32)[C@H](O)[C@@H]1O [1-deazainosine]	524 ± 53 µM	–	δ(ΔG^0) relative to Inosine: 2.89 kcal/mol
OC[C@@H]1C[C@@H](O)[C@H](n2ccc3c(O)ncnc32)O1 [7-deaza-3′-deoxyinosine]	70.8 ± 11.2 µM	-5.66 kcal/mol	δ(ΔG^0) relative to 3′-Deoxyinosine (relative to 3′-Deoxyinosine): -0.22 kcal/mol

Structure (SMILES)	Ki (Ki)	ΔG^0 (Gibbs free energy of interaction)	other results
Nc1nccc2c1ncn2[C@@H]1O[C@H](CO)[C@@H](O)[C@H]1O [3-deazaadenosine]	1220 ± 140 µM	-3.97 kcal/mol	δ(ΔG^0) relative to Adenosine: 1.72 kcal/mol
Cn1c(=O)[nH]c(=O)c2[nH]cnc21 [3-methylxanthine]	14.6 ± 3.1 µM	-6.6 kcal/mol	–
COc1ncnc2c1c(Cl)cn2[C@@H]1O[C@H](CO)[C@@H](O)[C@H]1O [6-O-methyl,7-deaza,7-Cl-inosine]	–	-6 kcal/mol	Ki (read-out: Ki): 39.6 ± 2.8 µM; δ(ΔG^0) relative to Inosine: 1.36 kcal/mol
Nc1ncnc2n[nH]cc12 [Aminopurinol]	–	-4.97 kcal/mol	Ki (read-out: Ki): 223 ± 27 µM; δ(ΔG^0) relative to Adenine (relative to Adenine): -0.382 kcal/mol
Cc1c[nH]c(=O)[nH]c1=O [thymine]	–	–	Inhibition of [3H]-guanine transport by pyrimidines: significant inhibition
Nc1nc2nc[nH]c2c(=S)[nH]1 [6-Thioguanine]	1.64 ± 0.25 µM	-7.89 kcal/mol	δ(ΔG^0) relative to Guanine: 0.17 kcal/mol
Sc1ncnc2nc[nH]c12 [6-Mercaptopurine]	3.6 ± 0.8 µM	-7.43 kcal/mol	δ(ΔG^0) relative to Hypoxanthine: 0.287 kcal/mol
OC[C@H]1O[C@@H](n2cnc3c(O)ncnc32)C[C@@H]1O [2′-deoxyinosine]	117 ± 12 µM	-5.35 kcal/mol	δ(ΔG^0) relative to Inosine: 1.98 kcal/mol
O=c1[nH]cnc2[nH]nc(Br)c12 [7-Br-allopurinol]	–	-5.71 kcal/mol	Ki (read-out: Ki): 65.7 ± 3.7 µM
O=c1[nH]cnc2cc[nH]c12 [9-deazahypoxanthine]	9.12 ± 0.66 µM	-6.88 kcal/mol	δ(ΔG^0) relative to Hypoxanthine: 0.837 kcal/mol
C[C@H]1O[C@@H](n2cnc3c(N)ncnc32)[C@H](O)[C@@H]1O [5′-deoxyadenosine]	85.2 ± 4.2 µM	-5.54 kcal/mol	δ(ΔG^0) relative to Adenosine: 0.14 kcal/mol
Nc1ccnc2c1ncn2[C@@H]1O[C@H](CO)[C@@H](O)[C@H]1O [1-deazaadenosine]	191 ± 10 µM	-5.07 kcal/mol	δ(ΔG^0) relative to Adenosine: 0.621 kcal/mol
O=c1[nH]cnc2c1CC=N2 [7-deazahypoxanthine]	318 ± 30 µM	-4.78 kcal/mol	δ(ΔG^0) relative to Hypoxanthine: 2.94 kcal/mol
Cn1cnc2c(=O)cc[nH]c21 [9-Me,1-deazahypoxanthine]	–	–	Ki (read-out: Ki): > 1000 µM; δ(ΔG^0) relative to Hypoxanthine: >3.61 kcal/mol
Nc1nc2c(ncn2[C@@H]2O[C@H](CO)C[C@H]2O)c(=O)[nH]1 [3′-deoxyguanosine]	196 ± 12 µM	-5.07 kcal/mol	δ(ΔG^0) relative to Guanosine: 2.25 kcal/mol and 2.41 kcal/mol
OC[C@H]1O[C@@H](n2cnc3cncnc32)[C@H](O)[C@@H]1O [Nebularine, 9-(β-D-ribofuranosyl)purine]	491 ± 75 µM	-4.52 kcal/mol	ΔG^0 (Gibbs free energy of interaction) (listed as nebularine): 4.52 kcal/mol; δ(ΔG^0) relative to Adenosine: 1.17 kcal/mol; δ(ΔG^0) relative to Inosine: 2.84 kcal/mol
Nc1nc2c(ncn2[C@H]2C[C@H](O)[C@@H](CO)O2)c(=O)[nH]1 [2′-deoxyguanosine]	281 ± 6 µM	-4.85 kcal/mol	δ(ΔG^0) relative to Guanosine: 2.63 kcal/mol; δ(ΔG^0) relative to Guanosine (listed as 2′-Deoxyguanosine): 2.63 kcal/mol
OC[C@H]1O[C@@H](n2cc(Br)c3c(O)ncnc32)[C@H](O)[C@@H]1O [7-deaza-7-Bromoinosine]	7.8 ± 1.2 µM	-6.98 kcal/mol	Affinity for Tg244440 (in words): high affinity; δ(ΔG^0) relative to Inosine: 0.382 kcal/mol
OC[C@@H]1C[C@@H](O)[C@H](n2cnc3c(O)ncnc32)O1 [3′-deoxyinosine]	102 ± 15 µM	-5.45 kcal/mol	δ(ΔG^0) relative to Inosine: 1.91 kcal/mol
Nc1nc2cc[nH]c2c(=O)[nH]1 [9-deazaguanine]	9.64 ± 1.59 µM	-6.84 kcal/mol	δ(ΔG^0) relative to Guanine: 1.22 kcal/mol

Reference: PMC8776092, “A Toxoplasma gondii Oxopurine Transporter Binds Nucleobases and Nucleosides Using Different Binding Modes” (International Journal of Molecular Sciences, 2022)
